Assay results taken from patent publication US7419669B2, “Peptide epitopes common to antigens of the same multigene family” (Institut Gustave Roussy, priority 2002, dated 2008).
“Also recorded” adds a separate entry of the source. Where no end group is shown, it is not given here.

Tests used:
HHD transgenic mice = assay: Induction of specific CTLs in HHD transgenic mice by immunization with variant MAGE-A peptides; 51Cr cytotoxicity on peptide-loaded RMAS-HHD targets; type: in vivo; conditions: for CTL response generated by immunization with the variant peptide: HHD mice, 100 μg s.c. in Freund's incomplete adjuvant, RMAS-HHD targets, effector/target 40/1
Description: The immunogenicity of the variant peptides p174Y1V10, p262L2 and p248V9 was evaluated by generation of CTLs on HHD transgenic mice (PASCOLO et al., J. Exp. Med., 185, 2043, 1997). These mice are β2m−/−, D^b−/− and express an HLA-A*0201 single chain made up of the α1 and α2 domains of HLA-A*0201 and the α3 and intracellular domains of D^b, linked via its N-terminal to the C-terminal of human β2-microglobulin, via a peptide of 15 amino acids.
The HHD mice are given a subcutaneous injection at the base of the tail with 100 μg of each variant peptide to be tested, emulsified in Freund's incomplete adjuvant, in the presence of 140 μg of a T-helper epitope derived from the HBV “core” antigen (128-140, sequence […]).
After 11 days, spleen cells taken from the mice (5×10^7 cells in 10 ml) are stimulated in vitro with the test peptide (10 μM). On the 6th day of culture, the populations which respond are tested in order to determine a specific cytotoxicity. The cells which respond are restimulated in vitro at one-week intervals with 2×10^7 irradiated (3000 rads) HHD spleen cells and 1 to 0.1 μM of peptide in the presence of 50 IU/ml of recombinant IL2 (Proleukin, Chiron Corp).
Cytotoxicity assays are carried out 6 days after the final stimulation.
RMAS-HHD cells are used as targets to study the cytotoxicity. The cells are obtained by transfection of murine RMAS cells with the HHD construct as described by PASCOLO et al. (J. Exp. Med., 185, 2043, 1997).
These target cells are labeled with 100 μCi of ^51Cr for 90 minutes, and then washed three times and plated out in round-bottomed 96-well plates (3×10^3 cells/well in 100 μl of RPMI 1640+3% of fetal calf serum). They are loaded with various concentrations of test peptide (variant, native peptide, or irrelevant control peptide), at 37° C. for 90 minutes.
Next, 100 μl of the effector cells (effector cell/target cell ratio=40/1) are added to the wells and the plates are incubated at 37° C. for 4 hours. After incubation, 100 μl of supernatant are collected and the radioactivity is measured in a γ-counter.
The percentage of specific lysis is calculated by means of the formula: [(experimental ^51Cr release−spontaneous ^51Cr release)/(maximum ^51Cr release−spontaneous ^51Cr release)]×100. In all the experiments, the spontaneous release is less than 20% of the maximum release induced with 3N HCl.

HLA-A*0201 = molecular target: T1, HLA-A*0201 (Homo sapiens, UniProt P04439, D140Y/D185E/D98H/E176V/E277Q/G131W/G231S/I119V/I121R/I166T/I218V/L300P/L318F/N151K/N90K/P208A/P217A/Q86G/Q94H/R138H/R169H/T345S); assay: Relative affinity (RA) of peptides for HLA-A*0201 on T2 cells, flow cytometry with BB7.2; type: binding; conditions: low affinity = RA>5 and DC50<2 hours
T1 construct: prevent the expression at their surface of newly synthesized HLA-A*0201 molecules; endogenous in cells; host or cells: human T2 cells (TAP-deficient)
Description: (§1) The affinity of the selected peptides for HLA-A*0201 was defined by two parameters: the relative affinity (RA); which reflects the ability of the peptides to bind to HLA-A*0201, and the rate of dissociation of the HLA-A*0201/peptide complexes (DC50), which reflects their stability. The peptides with high affinity (RA<5 and DC50>2 hours) are potentially immunogenic, unlike the peptides with low affinity (RA>5 and DC50<2 hours).
Human T2 cells (FIRAT et al., Eur. J. Immunol., 29, 3112, 1999) (3×10^5 cells/ml), which are deficient in TAP transporters, are incubated at 37° C. for 16 hours with various concentrations (100 μM, 10 μM, 1 μM, 0.1 μM) of each test peptide in serum-free RPMI 1640 medium supplemented with 100 ng/ml of human β2-microglobulin. Next, they are washed twice and labeled with the monoclonal antibody BB7.2 (PARHAM et al., Hum. Immunol., 3, 4, 277-299, 1981) which is specific for the HLA-A*0201 molecule, and then with a goat anti-mouse Ig antibody coupled to fluorescein isothiocyanate (FITC).
The cells are then analyzed by flow cytometry. For each concentration of peptide, the specific HLA-A*0201 fluorescence is calculated as a percentage of the fluorescence obtained with 100 μM of a reference peptide (HIVpol 589; […] (SEQ ID No: 1)). The relative affinity (RA) is defined as the ratio of the concentration of each peptide that induces 20% of the fluorescence obtained with 100 μM of the reference peptide, to the concentration of the reference peptide that induces 20% of the fluorescence obtained with 100 μM of said reference peptide. The lower the relative affinity, the stronger the binding of the peptide to HLA-A*0201. The mean RA for each peptide is determined from at least three independent experiments. In all the experiments, 20% of the maximum fluorescence was obtained for 1 to 3 μM of the reference peptide.
The relative affinity (RA) of the selected variant peptides for HLA-A*0201 was measured as described in example 1.

[1] = molecular target: T2, HLA-A*0201/peptide complexes (Homo sapiens, UniProt P04439, D140Y/D185E/D98H/E176V/E277Q/G131W/G231S/I119V/I121R/I166T/I218V/L300P/L318F/N151K/N90K/P208A/P217A/Q86G/Q94H/R138H/R169H/T345S); assay: Stability of peptide/HLA-A*0201 complexes on T2 cells (DC50); type: binding
T2 construct: prevent the expression at their surface of newly synthesized HLA-A*0201 molecules; endogenous in cells; host or cells: human T2 cells (TAP-deficient)
Description: as §1
T2 cells (10^6/ml) are incubated overnight at 37° C. with 100 μM of each test peptide in serum-free RPMI 1640 medium supplemented with 100 ng/ml of human β2-microglobulin. Next, they are washed four times in order to remove the free peptides, incubated with Brefeldin A (SIGMA; 10 μg/ml) for one hour in order to prevent the expression at their surface of newly synthesized HLA-A*0201 molecules, washed and incubated at 37° C. for 0, 2, 4, 6 or 8 hours. For each incubation time, the cells are then labeled, as indicated above, with the BB7.2 antibody, and analyzed by flow cytometry in order to evaluate the amount of peptide/HLA-A*0201 complex present at their surface. This amount is evaluated by means of the formula: (mean fluorescence of the T2 cells preincubated with the peptide−mean fluorescence of the T2 cells treated under similar conditions in the absence of peptide). […]

[2] = system: HLA-A*0201 human tumor cells expressing MAGE-A antigens (M44, M113, OBR); assay: Stimulation of CTL248 line with HLA-A*0201 human tumor cells expressing MAGE-A antigens, TNF-α secretion; type: cell-based
Description: The following HLA-A*0201 tumor lines were used: • lines expressing at least one MAGE-A antigen: M44 and M113 (melanoma); OBR (bladder cancer); • lines not expressing MAGE-A antigens: MCF-7 (breast cancer) and Caco-2 (colon cancer).
The CTL248 line was stimulated with each of the tumor lines mentioned above.
The stimulation is evaluated by detecting the secretion of TNF-α as described above.
In order to confirm that the tumor cell recognition is indeed HLA-A*0201-restricted, the CTL248 cells were stimulated with M44 cells preincubated for one hour with an anti-HLA-A*0201 monoclonal antibody (BB7.2) or with an irrelevant antibody (anti-CD19), and the production of TNFα was measured as described above.

[3] = system: CD8+ cells from normal donors; assay: Induction of specific human CTLs in vitro from PBMCs of normal donors with p248V9, intracellular IFNγ production; type: cell-based
Description: The ability of p248V9 to induce CTLs in vitro using peripheral blood mononuclear cells (PBMCs) from normal donors was tested as follows.
The PBMCs are obtained, from blood samples taken by leukocytapheresis on normal donors, after centrifugation at 2000 rpm for 20 min on a Ficoll/Hypaque (Amersham) gradient. After 3 washes in 0.9% NaCl, they are resuspended in complete medium (RPMI 1640 supplemented with 10% of heat-inactivated human AB serum, 40 μg/ml of gentamicin (Panpharma) and […] of L-glutamine (Gibco)), and incubated at 37° C. for 2 hours. After incubation, the non-adherent cells are removed. The adherent cells are differentiated into dendritic cells by culturing in a Teflon bag in a proportion of 3×10^6 cells/ml in complete medium supplemented with 500 IU/ml of GM-CSF (R & D Systems) and 500 IU/ml of IL-4 (R & D Systems). On the seventh day, maturing agents (100 ng/ml of polyI:C and 2 μg/ml of anti-CD40 antibody) are added to the culture. After 24 hours, the mature dendritic cells are loaded with the peptide p248V9 by incubation for 2 hours with 10 μM of peptide in the presence of 5 μg/ml of β2-microglobulin, and then irradiated at 3500 rads; they are then washed in order to remove the free peptide. CD8+ cells are isolated from the non-adherent cells by means of microbeads coupled to an anti-CD8 antibody (Miltenyi Biotec).
2×10^5 CD8+ cells are stimulated with 2×10^4 dendritic cells loaded with the peptide, in complete medium supplemented with 1000 IU/ml of IL-6 and 5 IU/ml of IL-12 in a final volume of 100 μl/well in a 96-well plate. From the seventh day, the cultures are stimulated in vitro each week with the dendritic cells loaded with the peptide, in the presence of 20 IU/ml of IL-2 and 10 ng/ml of IL-7. After the third restimulation, the CD8+ cells are collected and stimulated with EBV-transformed HLA-A*0201 allogenic B cells, in a 1/2 ratio, in the presence of 10 μM of peptide, for 16 hours.
The IFNγ-producing CD8+ cells are purified using a commercial kit (IFNγ secretion assay-cell enrichment and detection kit, Miltenyi Biotech). The cells thus purified are cultured for one week in complete medium supplemented with 20 IU/ml of IL-2 and 10 ng/ml of IL-7.
The response of these CD8+ cells to T2 cells loaded with one of the peptides p248V9, p248G9 or p248D9, or with a irrelevant peptide (HIVgag76), or to HLA-A*0201+MAGE-A+ tumor cells (M44 and M113) or HLA-A*0201+MAGE-A^− tumor cells (Caco-2), is evaluated by assaying the intracellular IFNγ production.
The CD8+ cells are incubated with the cells of the tumor line tested, in the presence of 20 μg/ml of Brefeldine-A (Sigma). […]
The cells are then analyzed by flow cytometry (FACSCalibur™ (Becton Dickinson) and CellQuest™ software).

[4] = system: COS-7 cells cotransfected with HHD construct and MAGE-A cDNA; assay: Stimulation of CTL248 line (induced with p248V9) with transfected COS-7 cells expressing MAGE-A antigens, TNF-α secretion; type: cell-based, monkey
Description: A CTL line called CTL248 was established from the spleen cells of an HDD mouse immunized with the peptide p248V9, by repeated stimulation in vitro with decreasing concentrations of p248G9 (10 μM-1 μM). This line is maintained in culture in the presence of 1 μM of the peptide p248G9.
The cells of the CTL248 line are stimulated, for each of the MAGE-A1, -A2, -A3, -A4, -A6, -A10 and -A12 antigens, with monkey cos-7 cells cotransfected with the HAD construct (PASCOLO et al., mentioned above) and a plasmid containing the cDNA for said antigen. By way of negative controls, COS-7 cells transfected either with the HHD construct alone or with the cDNA for the MAGE-A antigen concerned are used. The stimulation of the CTLs is evaluated by measuring their secretion of TNF-α. […]
After incubation for 6 hours, the supernatant is removed and brought into contact with WEHI164 clone 13 mouse fibrosarcoma cells (3×10^4 per well), which are characterized by a high sensitivity to TNF-α-induced apoptosis. In order to quantify the amount of TNF in the culture supernatants, a standard range of TNF-α (concentrations of 0 to 10^4 pg/ml) is used in parallel. After incubation for 16 hours at 37° C., the viability of the WEHI-164 clone 13 cells is determined by means of an MTT colorimetric assay (SIGMA) (ESPEVIK and NISSEN MEYER, J. Immunol. Methods, 95, 99, 1986).

Sequence | recognition of RMAS-HHD targets loaded with the native peptide by CTLs induced with the corresponding variant (HHD transgenic mice; native peptide loaded on targets) | affinity for HLA-A*0201 (in words) (HLA-A*0201) | DC50 (time required for loss of 50% of HLA-A*0201/peptide complexes) ([1]; T2 cells loaded with 100 μM peptide, 37° C., 0-8 hours) [h] | recognition of naturally processed MAGE-A epitope by CTLs induced with the peptide (HLA-A*0201 human tumor lines) [2] | induction of human CTLs by the peptide ([3]; PBMCs from normal donors, peptide-loaded dendritic cells, intracellular IFNγ) | response of p248V9-induced human CD8+ cells to T2 cells loaded with the peptide ([3]; intracellular IFNγ production) | CTL response generated by immunization with the variant peptide (HHD transgenic mice) | recognition of naturally processed MAGE-A epitope by CTLs induced with the peptide (COS-7 transfectants) [4] | stability of the complex formed with HLA-A*0201 (in words) [1]
YEFLWGPRA (listed as Homo sapiens) [p262] | not | low affinity | <2 | – | – | – | – | – | –
YLEYRQVPV (not fully specified) [p248V9] | – | – | – | recognize a naturally processed epitope common to the MAGE-A1, -A2, -A3, -A4, -A6, -A10 and -A12 antigens | induces human CTLs capable of also recognizing the corresponding native peptides, and capable of recognizing tumor cells expressing varied MAGE-A antigens | a response of the CD8+ cells | induces a CTL response directed not only against this variant but also against the two native peptides p248G9 and p248D9; also recorded: generates CTLs which kill the RMAS-HHD targets loaded with the variant peptide, or with the corresponding native peptide | recognize a naturally processed epitope common to the MAGE-A1, -A2, -A3, -A4, -A6, -A10 and -A12 antigens | –
YLGLSYDGLV (not fully specified) [p174Y1V10] | – | – | – | – | – | – | not capable of generating a CTL response | – | appears to be insufficient
